Where two headings read alike, the source gives them in different places.
What was measured:
[1] = tested on: Glioma; parameters: method as in PMID 19046047; conditions: administered along with surgery and radiotherapy; cited from earlier work
[2] = parameters: method as in PMID 20925470; conditions: high doses; cited from earlier work
[3] = parameters: method as in PMID 18971416; conditions: equation proposed by Levin-log permeability; cited from earlier work
[4] = Sulforhodamine B assay, Vero control cells; assay type: cell-based; conditions: African green monkey, Vero cells (normal kidney epithelial cells), SRB, read-out: Vero cell Line CC50
Method: (§1) In order to test the growth inhibition potential of the TMZ and Acridone derivatives on Glioma, the U-87 (Uppsala 87) Glioma cell lines and T-98 (Temozolomide resistant) Glioma cell lines were treated with Temozolomide (TMZ) and Acridone derivatives AC2, AC7, and AC26. The African Green Monkey Kidney Vero cell lines were used as control for the study. The Vero cell lines were obtained from the National Center for Cell Sciences (NCCS), Pune, while the U-87 and T-98 cell lines were carried in the lab of Dr. GJ Peters, Cancer Center Amsterdam (CCA), VU University Medical Center, Amsterdam, Netherlands. The Mycoplasma testing was done by using the Universal Mycoplasma Detection Kit (ATCC® 30-1012K™) every 6 months. The Vero cell lines have been used as control as they are normal kidney epithelial cells and are non-cancerous in nature. The Vero cell lines have been routinely used for testing cytotoxicity of small molecules by various researchers ([22], [23]). Also, in our previous study, Vero cell lines have been used for testing safety and efficacy of Acridone derivatives for Lung, Cervical, and Breast Cancer studies ([13]).
(§2) Cell viability was found using the Sulforhodamine B (SRB) assay to measure the cellular protein content which provides better sensitivity in comparison to MTT assay ([24]). Moreover, as this method is dependent on the property of the SRB dye, it acts by binding to proteins under slightly acidic conditions and can be exposed to basic conditions for its extraction. The resulting amount of bound dye is then utilized as a proxy for cell mass ([25]). This cell mass can then be extrapolated to measure cell growth.
Glioma cells were cultured in Gibco (RPMI 1640) complemented with 10% fetal calf serum (Gibco). The cultures were then treated with trypsin-EDTA in order to detach/separate the cells from their culture flasks. The quickly proliferating cells were harvested, counted and plated at suitable concentrations in 96-well microplates. These microplates were subsequently incubated for 24 h. After incubation, drug compounds were dissolved in the culture media and placed in 96 well plates in triplicates, which were again incubated at 37°C under 5% CO2 for 72 h. 72 h later, the plates were removed and the cells were treated with cold Trichloroacetic acid (TCA) to fix the cultures and. […] Thereafter, absorbance of the solution was measured at 540 nm utilizing a microplate reader. Absorbance readings (triplicate values) recorded were used to calculate percentage growth inhibition due to the effect of drugs using the following equations.
% Cell growth = Absorbance sample/Absorbance of control or untreated × 100 […]
The IC50 was calculated based on the log graph sheet which was developed in-house at the CCA, VU University Medical Center. […]

[5] = tested on: U-87 (Uppsala 87) Glioma cell lines; assay: Sulforhodamine B assay, U-87 drug sensitive Glioma cells; assay type: cell-based
Method: as §1, §2
(§3) Glioma cells were cultured in Gibco (RPMI 1640) complemented with 10% fetal calf serum (Gibco). The cultures were then treated with trypsin-EDTA in order to detach/separate the cells from their culture flasks. The quickly proliferating cells were harvested, counted and plated at suitable concentrations in 96-well microplates. These microplates were subsequently incubated for 24 h. After incubation, drug compounds were dissolved in the culture media and placed in 96 well plates in triplicates, which were again incubated at 37°C under 5% CO2 for 72 h. 72 h later, the plates were removed and the cells were treated with cold Trichloroacetic acid (TCA) to fix the cultures and. 0.4% of SRB dissolved in 1% acetic acid was then added to the culture in order to stain the cells. Next, the bound stain was dissolved in 150 μl of 10 mM unbuffered Tris base left on a gyrator shaker. Thereafter, absorbance of the solution was measured at 540 nm utilizing a microplate reader. Absorbance readings (triplicate values) recorded were used to calculate percentage growth inhibition due to the effect of drugs using the following equations.
(§4) % Cell growth = Absorbance sample/Absorbance of control or untreated × 100
(§5) % Growth inhibition = 100 - % cell growth
(§6) The IC50 was calculated based on the log graph sheet which was developed in-house at the CCA, VU University Medical Center.
(§7) Selectivity Index (SI) is a ratio that measures the window between cytotoxicity and anticancer activity of the drugs ([26]). […] Here, IC50 is the inhibition concentration for inhibiting 50% of cancer cells and CC50 is cytotoxic concentration causing death of 50% viable cells in the host.

[6] = tested on: T-98 (Temozolomide resistant) Glioma cell lines; assay: Sulforhodamine B assay, T-98 TMZ resistant Glioma cells; assay type: cell-based; conditions: for IC50: Glioma cell
Method: as §1, §2, §3, §4, §5, §6, §7

[7] = tested on: Drug resistant cancer cells (CR), T-98; assay: Mathematical tumor growth model simulation and Bliss synergy, drug resistant cancer cells
[8] = SI = CC50 of Vero cell line /IC50 of Cancer cell line after 72 h

- IC50 ([5]; U87WT, 72 h, SRB, Mean ± Standard Deviations in Table 4, read-out: U-87/WT IC50): 23.3 ± 7.57 µM
- IC50 ([6]; 72 h, SRB, Mean ± Standard Deviations in Table 4, read-out: T-98/TMZRES IC50): > 100 µM
- IC50 ([6]; drug administered individually, drug resistant cells, read-out: Initial IC50): 190 µM
- Fold change = final IC50/initial IC50 ([7]; combination TMZ + AC2): 0.19
- Fold change = final IC50/initial IC50 ([7]; combination TMZ + AC7): 0.24
- Fold change = final IC50/initial IC50 ([7]; combination TMZ + AC26): 0.54
Compound: Cn1nnc2c(C(N)=O)ncn2c1=O [TMZ, 3-Methyl-4-oxo-3,4-dihydroimidazo[5,1-d][1,2,3,5]tetrazine-8-carboxamide]
- increase of survival advantage [1]: 2.5 times
- dose leading to severe toxicity [2]: more than 250 μM
- brain capillary permeability [3]: ~2.7 ×10⁻⁶ cm/s
- CC50 at 72 h [4]: 482 µM
- U-87/WT SI [5, 8]: 20.66
- Relative growth, experimental data for U-87 cell line ([5]; TMZ dose 0.5): 98.47%
- Relative growth, experimental data for U-87 cell line ([5]; TMZ dose 1): 97.76%
- Relative growth, experimental data for U-87 cell line ([5]; TMZ dose 2.5): 97%
- Relative growth, experimental data for U-87 cell line ([5]; TMZ dose 5): 94.93%
- Relative growth, experimental data for U-87 cell line ([5]; TMZ dose 10): 87.32%
- Relative growth, experimental data for U-87 cell line ([5]; TMZ dose 25): 50.41%
- Relative growth, experimental data for U-87 cell line ([5]; TMZ dose 50): 47.71%
- Relative growth, experimental data for U-87 cell line ([5]; TMZ dose 100): 40.87%
- T-98/TMZRES SI [6, 8]: 2.53
- Relative growth, experimental data for T-98 cell line ([6]; TMZ dose 0.5): 98.26%
- Relative growth, experimental data for T-98 cell line ([6]; TMZ dose 1): 97.74%
- Relative growth, experimental data for T-98 cell line ([6]; TMZ dose 2.5): 96.65%
- Relative growth, experimental data for T-98 cell line ([6]; TMZ dose 5): 95%
- Relative growth, experimental data for T-98 cell line ([6]; TMZ dose 10): 87.43%
- Relative growth, experimental data for T-98 cell line ([6]; TMZ dose 25): 61.98%
- Relative growth, experimental data for T-98 cell line ([6]; TMZ dose 50): 52.77%
- Relative growth, experimental data for T-98 cell line ([6]; TMZ dose 100): 50.87%
- % fold change [(final-initial)/initial]*100 ([7]; combination TMZ + AC2): 80.8%
- % fold change [(final-initial)/initial]*100 ([7]; combination TMZ + AC7): 75.68%

— article PMC8006935, “Study of Combinatorial Drug Synergy of Novel Acridone Derivatives With Temozolomide Using in-silico and in-vitro Methods in the Treatment of Drug-Resistant Glioma” (Frontiers in Oncology, 2021)
